Like-named read-outs stand apart in the source and are kept apart here.
Assays:
[1] = test system: PKC mediated IL-2 production; assay: IL-2 ELISA, human primary T cell, anti CD3+CD28+ (whole cell functional assay); type: cell-based
In short: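 Anti-CD3/CD28-expanded human primary T cells (100,000/well), pre-incubated 1 h at 37° C with compound, then stimulated on plates coated with 1 μg/ml αCD3 and 5 μg/ml αCD28. Counter assay used 0.5 ng/ml PMA plus 0.1 μM ionomycin (final). Supernatant IL-2 measured by ELISA after 24 h.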

[2] = test system: PLP induced experimental autoimmune encephalomyelitis (EAE); assay: PLP induced experimental autoimmune encephalomyelitis (EAE) model in SJL mice; type: in vivo; conditions: Mus musculus, both pretreatment and treatment dosing
Excerpt: EAE is a useful model for multiple sclerosis (MS), an autoimmune disease of the CNS that is caused by immune-cell infiltration of the CNS white matter. Inflammation and subsequent destruction of myelin cause progressive paralysis. Like the human disease, EAE is associated with peripheral activation of T cells autoreactive with myelin proteins, such as myelin basic protein (MBP), proteolipid protein (PLP), or myelin oligodendrocyte protein (MOG). Activated neuroantigen-specific T cells pass the blood-brain barrier, leading to focal mononuclear cell infiltration and demyelination. EAE can be induced in susceptible mouse strains by immunization with myelin-specific proteins in combination with adjuvant. In the SJL mouse model used in these studies, hind limb and tail paralysis is apparent by Day 10 after immunization, the peak of disease severity can be observed between Days 10 and 14, and a cycle of partial spontaneous remission followed by relapse can be observed up to Day 35.
In the SJL murine model of EAE, each mouse is sensitized with PLP/CFA. (150 μg PLP139-151 with 200 μg CFA in 0.05 ml of homogenate on four sites of hind flank for a total of 0.2 ml emulsion is used to induce EAE). […] In both protocols, clinical scores are monitored daily, and body weights are measured twice weekly. […]

[3] = Homo sapiens, T-cell, 24 h, IL-2 production, human primary T cells stimulated with αCD3 and αCD28, 24 hours, IL-2 by ELISA, read-out: EC50
[4] = Homo sapiens, T-cell, human primary T cells stimulated with αCD3 and αCD28, IL-2 by ELISA, read-out: EC50 (blocked IL-2 production)
[5] = IL-2 production, human primary T cells stimulated with αCD3 and αCD28, 24 hours, IL-2 by ELISA, read-out: EC50

| SMILES | EC50 [1, 3] | EC50 [1, 4] | ED50 [2] | EC50 [1, 5] |
| --- | --- | --- | --- | --- |
| C[C@@H](O)COc1cc(F)c(Nc2ncc(C#N)c(N[C@@H]3C[C@@H]4CCCN4C(C)(C)C3)n2)cc1-n1nnn(C)c1=O [Compound 90, 4-((7R,8aS)-octahydro-5,5-dimethylindolizin-7-ylamino)-2-(4-((R)-2-hydroxypropoxy)-2-fluoro-5-(4,5-dihydro-4-methyl-5-oxotetrazol-1-yl)phenylamino)pyrimindine-5-carbonitrile] | < 0.1 µM | < 10 µM |  |  |
| Cn1nnn(-c2cc(Nc3ncc(F)c(NC4CCN5C(CCC5(C)C)C4)n3)c(F)cc2C2CC2)c1=O (centres unmarked) [Compound 26] | < 10 µM | < 10 µM |  |  |
| Cn1nnn(-c2cc(Nc3ncc(F)c(N[C@@H]4C[C@@H]5CCCN5C(C)(C)C4)n3)c(F)cc2C2CC2)c1=O [Compound 17, 1-(5-(4-((7R,8aS)-octahydro-5,5-dimethylindolizin-7ylamino)-5-fluoropyrimidin-2-yl-amino)-2-cyclopropyl-4-fluorophenyl)-4-methyl-1H-tetrazol-5(4H)-one] | < 0.1 µM | < 10 µM | 30 mg/kg |  |
| Cc1nnnn1-c1cc(Nc2ncc(F)c(NC3CC(C)(C)N4CCCC4C3C)n2)ccc1F (single isomer, unassigned) [Compound 70, 5-Fluoro-N2-(4-fluoro-3-(5-methyl-1H-tetrazol-1-yl)phenyl)-N4-(octahydro-5,5,8-trimethylindolizin-7-yl)pyrimidine-2,4-diamine] | < 10 µM | < 10 µM |  |  |
| CC1(C)C[C@@H](Nc2nc(Nc3cc(-n4cnnn4)c(C4CC4)cc3F)ncc2F)C[C@@H]2CC(F)(F)CN21 [Compound 43, N^2-(4-cyclopropyl-2-fluoro-5-(1H-tetrazol-1-yl)phenyl)-5-fluoro-N^4-((7S,8aR)-2,2-difluoro-octahydro-5,5-dimethylindolizin-7-yl)pyrimidine-2,4-diamine] | < 10 µM | < 10 µM |  |  |
| Cn1nnn(-c2cc(Nc3ncc(F)c(NC4CC5CCCN5C(C)(C)C4)n3)ccc2O[C@H]2CCOC2)c1=O (stereo partly drawn) [Compound 49, 1-(2-((S)-tetrahydrofuran-3-yloxy)-5-(5-fluoro-4-(octahydro-5,5-dimethylindolizin-7-ylamino)pyrimidin-2-ylamino)phenyl)-4-methyl-1H-tetrazol-5(4H)-one] | < 0.1 µM | < 10 µM |  |  |
| Cn1nnn(-c2cc(Nc3ncc(F)c(NC4CC5CCCN5C(C)(C)C4)n3)ccc2O[C@@H]2CCOC2)c1=O (stereo partly drawn) [Compound 47, 1-(2-((R)-tetrahydrofuran-3-yloxy)-5-(5-fluoro-4-(octahydro-5,5-dimethylindolizin-7-ylamino)pyrimidin-2-ylamino)phenyl)-4-methyl-1H-tetrazol-5(4H)-one] | < 0.1 µM | < 10 µM |  |  |
| CC1(C)Oc2ccc(Nc3ncc(F)c(NC4CC5CCCN5C(C)(C)C4)n3)cc2-n2nnnc21 (centres unmarked) [Compound 4, N2-(4,4-dimethyl-4H-benzo[b]tetrazolo[1,5-d][1,4]oxazin-8-yl)-5-fluoro-N4-(octahydro-5,5-dimethylindolizin-7-amine)pyrimidine-2,4-diamine] |  |  |  | < 10 µM |
| CC(=O)N(C)c1cc(Nc2ncc(F)c(NC3CC(C)(C)N4CCCC4C3C)n2)c(F)cc1C1CC1 (centres unmarked) [Compound 73] |  |  |  | < 0.5 µM |
| CC1(C)C[C@H](Nc2nc(Nc3cc(-n4cnnn4)c(C4CC4)cc3F)ncc2F)C[C@@H]2CCCN21 (racemic) [Compound 53, (±)-N2-(4-cyclopropyl-2-fluoro-5-(1H-tetrazol-1-yl)phenyl)-5-fluoro-n^4-(octahydro-5,5-dimethylindolizin-7-yl)pyrimidine-2,4-diamine] |  | < 10 µM |  |  |
| CC(C)Oc1cc(F)c(Nc2ncc(F)c(N[C@@H]3C[C@@H]4CCCN4C(C)(C)C3)n2)cc1-n1nnn(C)c1=O [Compound 23, 1-(5-(4-((7R,8aS)-5,5-dimethyl-octahydroindolizin-7-ylamino)-5-fluoropyrimidin-2-ylamino)-4-fluoro-2-isopropoxyphenyl)-4-methyl-1H-tetrazol-5(4H)-one] | < 0.1 µM | < 10 µM |  |  |
| Cn1nnn(-c2cc(Nc3ncc(F)c(NC4CCN5CCCC5C4)n3)c(F)cc2C2CC2)c1=O (racemic) [Compound 27, (±)-1-(5-(5-fluoro-4-(octahydroindolizin-7-ylamino)pyrimidin-2-ylamino)-2-cyclopropyl-4-fluorophenyl)-4-methyl-1H-tetrazol-5(4H)one] | < 10 µM | < 10 µM |  |  |
| Cn1nnn(-c2cc(Nc3ncc(F)c(N[C@@H]4C[C@@H]5CCCN5C(C)(C)C4)n3)c(F)cc2OC2COC2)c1=O [Compound 88, 1-(5-(4-((7R,8aS)-octahydro-5,5-dimethylindolizin-7-ylamino)-5-fluoropyrimidin-2-ylamino)-4-fluoro-2-(oxetan-3-yloxy)phenyl)-4-methyl-1H-tetrazol-5(4H)-one] | < 0.5 µM | < 10 µM |  |  |
| Cn1nnn(-c2cc(Nc3ncc(C#N)c(NC4CC5CCCN5C(C)(C)C4)n3)c(F)cc2C2CC2)c1=O (centres unmarked) [Compound 66, 4-((R/S,S/R)-Octahydro-5,5-dimethylindolizin-7-ylamino)-2-(4-cyclopropyl-2-fluoro-5-(4,5-dihydro-4-methyl-5-oxotetrazol-yl)phenylamino) pyrimidine-5-carbonitrile] |  |  |  | < 0.1 µM |
| CC1(C)C[C@H](Nc2nc(Nc3cc(S(F)(F)(F)(F)F)ccc3F)ncc2F)C[C@@H]2CCCN21 [Compound 71] | < 1 µM | < 10 µM |  |  |
| CC1C(Nc2nc(Nc3cc(N(C)C(=O)N(C)C)c(C4CC4)cc3F)ncc2F)CC(C)(C)N2CCCC12 (centres unmarked) [Compound 74] |  |  |  | < 0.5 µM |
| Cn1nnn(-c2cc(Nc3ncc(F)c(N[C@@H]4C[C@@H]5CCCN5C(C)(C)C4)n3)c(F)cc2OCC(C)(C)O)c1=O [Compound 87, 1-(5-(4-((7R,8aS)-5,5-dimethyloctahydroindolizin-7-ylamino)-5-fluoropyrimidin-2-ylamino)-4-fluoro-2-(2-hydroxy-2-methylpropoxy)phenyl)-4-methyl-1H-tetrazol-5(4H)-one] | < 0.1 µM | < 10 µM |  |  |
| Cn1nnn(-c2cc(Nc3ncc(F)c(NC4CC5CCCN5C(C)(C)C4)n3)ccc2OC2CCOCC2)c1=O (racemic) [Compound 51, 1-(5-(5-fluoro-4-(octahydro-5,5-dimethylindolizin-7-ylamino)pyrimidin-2-ylamino)-2-(tetrahydro-2H-pyran-4-oxy)phenyl)-4-methyl-1H-tetrazol-5(4H)-one] | < 0.5 µM | < 10 µM |  |  |

Source: patent US10792282B2, “Protein kinase C inhibitors and uses thereof” (Rigel Pharmaceuticals, Inc., priority 2013, dated 2020)
